Earlier results, collected in patent US20100028276A1, “SUNSCREEN COMPOSITIONS” (priority 2007, published 2010).

Legend:
[1] = test system: cancer cells
[2] = uterine wet weight, cell height, cell proliferation assays

| SMILES | effect on growth of cancer cells [1] | estrogenicity [2] |
| --- | --- | --- |
| Cc1ccc(C=C2C(=O)C3(C)CCC2C3(C)C)cc1 (stereo not drawn) [4-methyl-benzylidene camphor, 3-(4-methylbenxylidene) camphor] | made cancer cells grow more rapidly | highly estrogenic |
| COc1ccc(C(=O)c2ccccc2)c(O)c1 [benzophenone-s, Benzophenone-3] | made cancer cells grow more rapidly | highly estrogenic |
| CCCCC(CC)COC(=O)c1ccc(N(C)C)cc1 (stereo not drawn) [octyl-dimethyl-PABA] | made cancer cells grow more rapidly | – |
| CC1CC(OC(=O)c2ccccc2O)CC(C)(C)C1 (stereo not drawn) [homosalate] | made cancer cells grow more rapidly | – |
